Drawing on PubChem BioAssay AID2305 (GlaxoSmithKline (GSK), 2010), this text covers IC50 for 34 compounds.

This experiment concerns P. falciparum 3D7 growth, pLDH absorbance. The experiment in a line: P. falciparum 3D7 growth inhibition, dose response, strain 3D7 (AID 2305).

pIC50: −log10 of the molar value.

As to `O=C(/C=C/c1ccc(Cl)c(Cl)c1)NCCCCCCN1CCCN(C(=O)Nc2cc(Cl)cc(Cl)c2)CC1`, the pIC50 (as a rule, −log10 of the IC50, conventionally taken in molar units) was 6.11.

Regarding `Cc1[nH]c2ccc(O)cc2c1C1CCN(CC2CCC(NC(=O)/C=C/c3ccc(Cl)c(Cl)c3)CC2)CC1` (centres undefined), the pIC50 was 6.12.

Consider `Cc1cc(N2CCC(C)CC2)nc2cc(O)ccc12`, for which the pIC50 was 5.93.

Turning to `Cc1cc(N2CCOCC2)nc2ccc(NC(=O)c3ccc(Cl)c([N+](=O)[O-])c3)cc12`, the pIC50 was 5.99.

Consider `CN(C)[C@@H]1C(=O)C(C(N)=O)=C(O)[C@@]2(O)C(=O)C3=C(O)c4c(O)ccc(C#Cc5ccccn5)c4C[C@H]3C[C@@H]12`, for which the pIC50 is 6.12.

Regarding `Oc1cccc2ccc(Nc3ccccn3)nc12`, the pIC50 was 6.12.

As for `CCCCCCc1cnc2nc(N)nc(N)c2c1C`, the pIC50 is 6.72.

The compound `Cc1[nH]c(C)c(-c2ccc(Nc3ccc(C(F)(F)F)cn3)cc2)c(=O)c1Br` gave a negative-log IC50 (pIC50) of 7.52.

Consider `CCCN1CCN(c2ccccc2NS(=O)(=O)c2ccc(C(=O)Nc3ccc(Cl)cc3)cc2)CC1`, for which the pIC50 is 5.94.

`O[C@H](c1cc(C(F)(F)F)nc2c(C(F)(F)F)cccc12)[C@@H]1CCCCN1`: the pIC50 was 7.15.

As for `Cc1nnsc1C(=O)Nc1ccc(-c2cccc(-c3nc4ccc(C(F)(F)F)cc4[nH]3)c2)cc1`, the pIC50 was 6.08.

`NCCCNc1nccc(N2CCc3ncnc(Nc4ccc(OCc5cccc(F)c5)c(Cl)c4)c3C2)n1` showed a pIC50 of 6.08.

The compound `N#Cc1ccc(CN2CCC(NC(=O)c3ccc(-c4nnc(-c5cccc6ccccc56)o4)cc3)CC2)cc1` had a pIC50 of 6.17.

With `NCc1cccc(-c2ccc(CNC3CCN(Cc4ccccc4)CC3)cc2)c1`, the negative-log IC50 (pIC50) is 5.77.

Compound `Cc1cccc2[nH]c(-c3ccc(-c4ccc(CN5CC(C)OC(C)C5)cc4)cc3)nc12` (centres undefined) gave a pIC50 of 6.28.

Consider `CN=C(NO)NCCN(C)C`, for which the pIC50 was 5.93.

`CN(C)CCC=C1c2ccccc2Sc2c(O)cc(Cl)cc21`: the pIC50 was 6.55.

`Cc1cc(F)ccc1C1CCN(CCCCNC(=O)c2ccc(NC(=O)c3ccc(Cl)cc3)cc2)CC1` showed a pIC50 of 6.16.

`COCCOC(=O)C(=O)c1c(-c2ccccc2)c(-c2ccc(OC)c(OC)c2)c2c3cc(OC)c(OC)cc3ccn12` showed a pIC50 of 6.30.

Compound `Cc1c2c(nn1-c1ccccc1)C(c1ccccc1)N(c1ccccc1)C2=O` (centres undefined) had a pIC50 of 6.82.

Take `CCOC(=O)c1c(CN(CC)CC)n(-c2ccccc2)c2cc(Br)c(O)cc12`: the pIC50 was 6.00.

Regarding `Cc1nc(C(=O)N2CCCC[C@H]2CNC(=O)c2ccc(-c3ccc(N4CCCC4=O)cc3C)cc2)c(-c2ccc(F)cc2)s1`, the pIC50 is 6.34.

For `N#Cc1ccc(N[C@@H](CC2CCCCC2)C(=O)Nc2ccc(-c3ccccc3)cc2)c2ccccc12`, the pIC50 is 6.22.

With `Oc1ccc2[nH]c(-c3cccc(F)c3)nc2c1CN1CCCC1`, the pIC50 was 6.10.

`Cc1cccc2[nH]c(-c3ccc(-c4cccc(CN5CCCC(N)C5)c4)s3)nc12` (centres undefined) showed a pIC50 of 6.27.

`COc1cccc(C2CCN(CCN3CCC(CNC(=O)c4ccc(-c5ccc(C(F)(F)F)cc5)cc4)CC3)CC2)c1` gave a pIC50 of 6.05.

In the case of `Cc1cc(NN=Cc2ccccc2)c2cc(F)ccc2n1`, the pIC50 was 6.24.

`Cc1ccc(C(=O)Nc2cccc(-c3ccc(N4CCN(C)CC4)nn3)c2)cc1[N+](=O)[O-]` had a pIC50 of 6.48.

Consider `CCCCCN1CCCC(CNS(=O)(=O)c2ccc(C(=O)Nc3ccc(C(F)(F)F)cc3)cc2)C1` (centres undefined), for which the pIC50 is 6.04.

For the compound `Cc1cc(-c2cccc(CNCc3ccc(F)cc3)c2)ccc1S(=O)(=O)NCCN1CCCC1`, the pIC50 is 6.14.

For `O=C(/C=C/c1ccc(Cl)c(Cl)c1)NCCCCN1CCCN(C(=O)Nc2ccc(F)c(Cl)c2)CC1`, the pIC50 was 5.82.

In turn, `Cc1[nH]c2ccc(C#N)cc2c(=O)c1Br` showed a pIC50 of 6.19.

The compound `c1ccc(Oc2ccc(Nc3ccnc4cc(-c5cccc(CNCCN6CCOCC6)c5)ccc34)cc2)cc1` showed a pIC50 of 6.41.

Regarding `Cc1cccc2[nH]c(-c3cccc(-c4cccc(NC(=O)CNC(=O)c5ccc(O)cc5)c4)c3)nc12`, the pIC50 was 6.00.
